In ChEMBL document CHEMBL1155136, “Role of the ABC transporter PRP1 (ABCC7) in pentamidine resistance in Leishmania amastigotes” (Antimicrob Agents Chemother, 2007):

Columns and labels:
[1] = test system: Leishmania major; experiment: Antileishmanial activity against wild-type Leishmania major LV39 promastigotes infected in human THP1 cells by luciferase based assay; assay type: functional, organism-based; conditions: LV39, THP-1
[2] = test system: Leishmania amazonensis; experiment: Antileishmanial activity against wild-type Leishmania amazonensis MHOM/BR/1973/MM2269 promastigotes infected in human THP1 cells by luciferase based assay; assay type: functional, organism-based; conditions: THP-1
[3] = test system: Leishmania infantum; experiment: Antileishmanial activity against wild-type Leishmania infantum MHOM/MA/67/ITMAP-263 promastigotes infected in human THP1 cells by luciferase based assay; assay type: functional, organism-based; conditions: THP-1
[4] = test system: Leishmania major; experiment: Antileishmanial activity against ABC transporter PRP1 gene expressing Leishmania major LV39 promastigotes infected in human THP1 cells assessed as fold resistance by luciferase based assay relative to control; assay type: functional, THP-1
[5] = test system: Leishmania amazonensis; experiment: Antileishmanial activity against ABC transporter PRP1 gene expressing Leishmania amazonensis MHOM/BR/1973/MM2269 promastigotes infected in human THP1 cells assessed as fold resistance by luciferase based assay relative to control; assay type: functional, THP-1
[6] = test system: Leishmania infantum; experiment: Antileishmanial activity against ABC transporter PRP1 gene expressing Leishmania infantum MHOM/MA/67/ITMAP-263 axenic amastigotes assessed as fold resistance relative to control

Structure (SMILES)	IC50 [1]	IC50 [2]	IC50 [3]	fold change (FC) [4]	fold change (FC) [5]	fold change (FC) [6]
N=C(N)c1ccc(OCCCCCOc2ccc(C(=N)N)cc2)cc1 [PENTAMIDINE]	5.1 µg/mL	6.8 µg/mL	10 µg/mL	3	3	3
COc1ccc(CCN(C)CCCC(C#N)(c2ccc(OC)c(OC)c2)C(C)C)cc1OC (centres undefined) [VERAPAMIL]	40.3 µM	19.1 µM	43.2 µM	–	–	–
